Tests used:
Type in all cases: functional, Mus musculus
[1] = Cytotoxicity of compound against Melan-a cells determined as percent cell survival at 1 ppm
[2] = Cytotoxicity of compound against Melan-a cells determined as percent cell survival at 100 ppm
[3] = Cytotoxicity of compound against Melan-a cells determined as percent cell survival at 10 ppm

SMILES | Cell survival [1] | Cell survival [2] | Cell survival [3]
NCCCC[C@H](NC(=O)OCc1cc(=O)c(O)co1)C(=O)N[C@@H](CCC(=O)O)C(=O)N[C@@H](Cc1ccc(O)cc1)C(=O)O | 98.38% | 100.81% | 98.78%
O=C(N[C@@H](Cc1ccccc1)C(=O)N[C@@H](Cc1ccc(O)cc1)C(=O)N[C@@H](Cc1ccc(O)cc1)C(=O)O)OCc1cc(=O)c(O)co1 | 124.4% | 124.4% | 128.62%
O=c1cc(CO)occ1O [KOJIC ACID] | 91.75% | 86.92% | 92.36%
O=C(N[C@@H](Cc1ccccc1)C(=O)N[C@@H](Cc1c[nH]c2ccccc12)C(=O)N[C@@H](Cc1ccc(O)cc1)C(=O)O)OCc1cc(=O)c(O)co1 | 125.51% | 128.08% | 128.73%
O=C(N[C@@H](Cc1ccccc1)C(=O)N[C@@H](Cc1ccccc1)C(=O)N[C@@H](Cc1ccc(O)cc1)C(=O)O)OCc1cc(=O)c(O)co1 | 91.62% | 104.36% | 94.66%

From ChEMBL document CHEMBL1148263, “Solid-phase synthesis of kojic acid-tripeptides and their tyrosinase inhibitory activity, storage stability, and toxicity” (Bioorg Med Chem Lett, 2004)
